Reference: patent US20230391727A1, “ANALOGUES OF PENTAMIDINE AND METHODS FOR TREATING INFECTIONS” (Auransa Inc., priority 2020, published 2023)
Converted amounts (≈) assume the structure as drawn. Like-named read-outs stand apart in the source and are kept apart here.

Columns and labels:
[1] = Pharmacokinetic analysis, tissue and plasma exposure; details: male C57BL6 mice, 10 mg/kg subcutaneous administration; kidney, liver, and lung
Experimental: To determine whether target concentrations/exposures of these compounds can be achieved at various target organs, exposures of compound 3 were tested in kidney, liver, spleen, lung peritoneal fluid and plasma of male C57BL6 mice (5 mice per group). Compound 3 was dosed at 10 mg/kg subcutaneously with each group having samples taken at time indicated (FIG. 7).

A. baumannii ATCC 17978 = assay: Checkerboard assay with novobiocin (FIGS. 2, 3, 5, 6); format: cell-based, Acinetobacter baumannii
Source text: Novobiocin is an anti-staphylococcal drug, but with limited use. The oral form of novobiocin drug has since been withdrawn from the market due to lack of efficacy. This antibiotic is often used to treat Staphylococcus aureus infection, particularly methicillin resistant S. aureus “MRSA”.

[2] = system: Blastomyces dermatitidis BD1; assay: Anti-fungal MIC assay; format: cell-based
Method in brief: (§1)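 First, DMSO stocks (6400 μg/ml, 100× highest test level) were diluted to 2× in RPMI-1640 with MOPS at pH 7.0. Trays were then held at 35° C without agitation.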

Candida albicans SC5314 = assay: Anti-fungal MIC assay; format: cell-based
Method in brief: as §1

Candida auris DI17-47 = assay: Anti-fungal MIC assay; format: cell-based; details: Candidozyma auris
Method in brief: as §1

[3] = system: Blastomyces dermatitidis BD3; assay: Anti-fungal MIC assay; format: cell-based
Method in brief: as §1

Candida parapsilosis CP1 = assay: Anti-fungal MIC assay; format: cell-based
Method in brief: as §1

Candida glabrata CG3 = assay: Anti-fungal MIC assay; format: cell-based; details: Nakaseomyces glabratus
Method in brief: as §1

Candida albicans 43001 = assay: Anti-fungal MIC assay; format: cell-based
Method in brief: as §1

Candida parapsilosis CP3 = assay: Anti-fungal MIC assay; format: cell-based; details: Lodderomyces parapsilosis
Method in brief: as §1

Candida auris DI17-48 = assay: Anti-fungal MIC assay; format: cell-based; details: Candidozyma auris
Method in brief: as §1

[4] = system: Cryptococcus neoformans CN3; assay: Anti-fungal MIC assay; format: cell-based
Method in brief: as §1

Candida albicans CA6 = assay: Anti-fungal MIC assay; format: cell-based
Method in brief: as §1

[5] = system: Cryptococcus neoformans USC 1597; assay: Anti-fungal MIC assay; format: cell-based
Method in brief: as §1

[6] = system: Paecilomyces variotii MYA-3630; assay: Anti-fungal MIC assay; format: cell-based
Method in brief: as §1

Candida albicans CA3 = assay: Anti-fungal MIC assay; format: cell-based
Method in brief: as §1

[7] = system: Candida guilliermondii Cgui2; assay: Anti-fungal MIC assay; format: cell-based; details: Meyerozyma guilliermondii
Method in brief: as §1

Candida krusei ATCC6258 = assay: Anti-fungal MIC assay; format: cell-based; details: Pichia kudriavzevii
Method in brief: as §1

Candida parapsilosis CP2 = assay: Anti-fungal MIC assay; format: cell-based; details: Lodderomyces parapsilosis
Method in brief: as §1

Candida glabrata 05-62 = assay: Anti-fungal MIC assay; format: cell-based
Method in brief: as §1

[8] = system: Blastomyces dermatitidis BD2; assay: Anti-fungal MIC assay; format: cell-based
Method in brief: as §1

[9] = Anti-fungal MIC assay, summary of first round; format: cell-based; details: read-out: Isolate MIC (100%); range over isolates of the first round of testing
Experimental: The first round of testing included Candida parapsilosis, Candida krusei, Paecilomyces variotii, Candida albicans, Aspergillus fumigatus, and Blastomyces dermatitidis. […] The second round of testing included Candida parapsilosis, Candida krusei, Candida albicans, Candida auris, Candida glabrata, Candida guilliermondii, and Cryptococcus neoformans.
Stock solutions of the investigational agent were prepared at concentrations 100-times the highest concentration to be tested (6400 μg/ml) using dimethyl sulfoxide. Aliquots of the stock solutions were dispensed into polystyrene vials and stored at −20° C.
The synthetic medium RPMI-1640 (with glutamine, without bicarbonate, and with phenol red) was used. The RPMI was buffered to a pH of 7.0+0.1 at 25° C. with 0.165M MOPS (3-[N-morpholino] propanesulfonic acid). Sterile U-shaped 96-well cell culture plates were used to perform the MIC assays. […]
Fungal isolates were grown on Sabouraud dextrose agar (yeasts) or potato flake agar (filamentous fungi) and cells were collected after an appropriate period of growth for each species being evaluated (e.g., 48-72 hours for yeasts and 7 days for filamentous fungi). The fungi were suspended in sterile distilled water, and the densities of the fungal suspension were read using a spectrophotometer and adjusted to an appropriate optical density specific for each fungal species. […]

[10] = read-out: MIC, 50% growth inhibition
[11] = read-out: MIC, 100% growth inhibition

N=C(N)c1ccc(CC[C@H]2CCC[C@@H](CCc3ccc(C(=N)N)cc3)C2)cc1 [Compound 3, 4,4′-(2,2′-((1R,3S)-cyclohexane-1,3-diyl)bis(ethane-2,1-diyl))dibenzimidamide]
exposure relative to target concentrations for pharmacology [1]: target concentrations for pharmacology could be achieved | synergistic effect with novobiocin (A. baumannii ATCC 17978): clear synergistic effect | synergy with novobiocin as compared to pentamidine with novobiocin (A. baumannii ATCC 17978): superior synergy | MIC (A. baumannii ATCC 17978; Acinetobacter baumannii, ATCC17978, substance alone): 33.2 µM | MIC [2, 10]: 4 µg/mL (≈ 10.6 µM) | MIC [2, 11]: 8 µg/mL (≈ 21.2 µM) | MIC (Candida albicans SC5314; [10]): 1 µg/mL (≈ 2.66 µM) | MIC (Candida albicans SC5314; [11]): 1 µg/mL (≈ 2.66 µM) | MIC (Candida auris DI17-47; DI1747, read-out: MIC, 50% growth inhibition): 1 µg/mL (≈ 2.66 µM) | MIC (Candida auris DI17-47; DI1747, read-out: MIC, 100% growth inhibition): 4 µg/mL (≈ 10.6 µM) | MIC [3, 10]: 4 µg/mL (≈ 10.6 µM) | MIC [3, 11]: 8 µg/mL (≈ 21.2 µM) | MIC (Candida parapsilosis CP1; [10]): 1 µg/mL (≈ 2.66 µM) | MIC (Candida parapsilosis CP1; [11]): 8 µg/mL (≈ 21.2 µM) | MIC (Candida glabrata CG3; [10]): 0.5 µg/mL (≈ 1.33 µM) | MIC (Candida glabrata CG3; [11]): 1 µg/mL (≈ 2.66 µM) | MIC (Candida albicans 43001; [10]): 0.25 µg/mL (≈ 0.664 µM) | MIC (Candida albicans 43001; [11]): 0.5 µg/mL (≈ 1.33 µM) | MIC (Candida parapsilosis CP3; [10]): 2 µg/mL (≈ 5.31 µM) | MIC (Candida parapsilosis CP3; [11]): 8 µg/mL (≈ 21.2 µM) | MIC (Candida auris DI17-48; DI1748, read-out: MIC, 50% growth inhibition): 2 µg/mL (≈ 5.31 µM) | MIC (Candida auris DI17-48; DI1748, read-out: MIC, 100% growth inhibition): 4 µg/mL (≈ 10.6 µM) | MIC [4, 10]: 0.5 µg/mL (≈ 1.33 µM) | MIC [4, 11]: 0.5 µg/mL (≈ 1.33 µM) | MIC (Candida albicans CA6; [10]): 0.5 µg/mL (≈ 1.33 µM) | MIC (Candida albicans CA6; [11]): 0.5 µg/mL (≈ 1.33 µM) | MIC ([5]; USC1597, read-out: MIC, 50% growth inhibition): 0.5 µg/mL (≈ 1.33 µM) | MIC ([5]; USC1597, read-out: MIC, 100% growth inhibition): 0.5 µg/mL (≈ 1.33 µM) | MIC ([6]; MYA3630, read-out: MIC, 50% growth inhibition): 1 µg/mL (≈ 2.66 µM) | MIC ([6]; MYA3630, read-out: MIC, 100% growth inhibition): 1 µg/mL (≈ 2.66 µM) | MIC (Candida albicans CA3; [10]): 1 µg/mL (≈ 2.66 µM) | MIC (Candida albicans CA3; [11]): 1 µg/mL (≈ 2.66 µM) | MIC [7, 10]: 2 µg/mL (≈ 5.31 µM) | MIC [7, 11]: 2 µg/mL (≈ 5.31 µM) | MIC (Candida krusei ATCC6258; ATCC6258, C. krusei ATCC 6258, second round (Table 6), read-out: MIC, 50% growth inhibition): 0.5 µg/mL (≈ 1.33 µM) | MIC (Candida krusei ATCC6258; ATCC6258, Candida krusei ATCC6258, first round (Table 5), read-out: MIC, 50% growth inhibition): 8 µg/mL (≈ 21.2 µM) | MIC (Candida krusei ATCC6258; ATCC6258, read-out: MIC, 100% growth inhibition, C. krusei ATCC 6258, second round (Table 6)): 1 µg/mL (≈ 2.66 µM) | MIC (Candida krusei ATCC6258; ATCC6258, read-out: MIC, 100% growth inhibition, Candida krusei ATCC6258, first round (Table 5)): 8 µg/mL (≈ 21.2 µM) | MIC (Candida parapsilosis CP2; [10]): 1 µg/mL (≈ 2.66 µM) | MIC (Candida parapsilosis CP2; [11]): 4 µg/mL (≈ 10.6 µM) | MIC (Candida glabrata 05-62; Nakaseomyces glabratus, 0562, read-out: MIC, 50% growth inhibition): 2 µg/mL (≈ 5.31 µM) | MIC (Candida glabrata 05-62; Nakaseomyces glabratus, 0562, read-out: MIC, 100% growth inhibition): 4 µg/mL (≈ 10.6 µM) | MIC [8, 10]: 2 µg/mL (≈ 5.31 µM) | MIC [8, 11]: 4 µg/mL (≈ 10.6 µM) | MIC [9]: 1 to 64 µg/mL (≈ 2.66 to 170 µM)
